Laboratory results as given in patent publication US20250206729A1, “DUAL RAF AND TUBULIN INHIBITORS AND METHODS OF USE THEREOF” (Deciphera Pharmaceuticals, LLC, priority 2023, published 2025).
Read-outs that look alike come from different tables or passages of the source.

Assays:
HCT-116 cells = test: HCT-116 cell proliferation assay; type: cell-based; details: Homo sapiens
MiaPaca-2 cells = test: MiaPaca-2 cell proliferation assay; type: cell-based; details: Homo sapiens, MIA PaCa-2
[1] = tested on: tubulin polymerization in HCT-116 cells; test: Cellular tubulin polymerization assay (HCT-116 cells); type: cell-based; details: HCT-116 cells, read-out: Tubulin Cellular
Method: HCT-116 cells (catalog #CCL-247) are obtained from the American Type Culture Collect (ATCC, Manassas, VA). Briefly, cells are grown in McCoy's 5A supplemented with 10% characterized fetal bovine serum (Invitrogen, Carlsbad, CA) and 1% Penicillin/Streptomycin/L-Glutamine at 37° C., 5% CO2, and 95% humidity. Cells are expanded until reaching 70-95% confluency at which point they are sub-cultured or harvested for assay use. 450000 cells are added per well in 1500 μL complete growth medium in a tissue culture treated, 12-well plate. Plates are incubated for 18 to 24 h at 37° C., 5% CO2, and 95% humidity. At the end of the incubation, 2000 μL of base culture media is added to each well, followed by a serial dilution of compound. Plates are incubated for an additional 1 h at 37° C., 5% CO2, and 95% humidity. Lysates are generated by the addition of 100 μL Lysis and Microtubule Stabilization Buffer 1 (LMSO1, Cytoskeleton Inc, Denver, CO) supplemented with GTP (BST06, Cytoskeleton Inc), ATP (BSA04, Cytoskeleton Inc), and Protease Inhibitor Cocktail Stock (PIC02, Cytoskeleton Inc). Cells are scraped off wells using a rubber cell scraper and collected in a clean 96-well plate. Lysates are centrifuged at 1000× g, 37° C. for 10 min and supernatant fraction is placed into an additional 96-well plate. The remaining pellet fraction is reconstituted in 100 μL LMS01 buffer and sonicated for 10 min. Pellet and Supernatant fractions are probed for α-tubulin via western blot analysis on the Jess System or equivalent (Bio-techne, Minneapolis, MN). Data is analyzed using Prism software (Graphpad, San Diego, CA) to calculate IC50 values.

[2] = target: T1, B-Raf kinase (SEQ ID NO: 1) (Homo sapiens, UniProt P15056); test: Biochemical assay for B-Raf (coupled pyruvate kinase/lactate dehydrogenase)
T1 construct: GST (N); purchased Sigma
T1 sequence (P15056 416-766): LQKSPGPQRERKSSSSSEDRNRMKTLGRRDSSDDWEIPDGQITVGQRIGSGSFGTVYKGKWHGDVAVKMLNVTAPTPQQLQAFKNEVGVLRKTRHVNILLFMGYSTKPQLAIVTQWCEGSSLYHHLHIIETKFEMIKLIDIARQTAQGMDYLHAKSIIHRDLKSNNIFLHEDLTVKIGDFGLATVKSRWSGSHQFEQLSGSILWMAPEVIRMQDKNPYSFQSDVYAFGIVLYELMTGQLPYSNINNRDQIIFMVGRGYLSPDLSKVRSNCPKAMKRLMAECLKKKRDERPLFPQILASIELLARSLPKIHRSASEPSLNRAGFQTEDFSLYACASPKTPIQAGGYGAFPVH

[3] = target: T2, C-Raf kinase (SEQ ID NO: 2) (Homo sapiens, UniProt P04049, Y340D/Y341D); test: Biochemical assay for C-Raf (coupled pyruvate kinase/lactate dehydrogenase)
T2 construct: C-Raf residues 306-end; Y340D, Y341D with N-; GST (N); purchased Sigma
T2 sequence (P04049 307-648 Y340D/Y341D): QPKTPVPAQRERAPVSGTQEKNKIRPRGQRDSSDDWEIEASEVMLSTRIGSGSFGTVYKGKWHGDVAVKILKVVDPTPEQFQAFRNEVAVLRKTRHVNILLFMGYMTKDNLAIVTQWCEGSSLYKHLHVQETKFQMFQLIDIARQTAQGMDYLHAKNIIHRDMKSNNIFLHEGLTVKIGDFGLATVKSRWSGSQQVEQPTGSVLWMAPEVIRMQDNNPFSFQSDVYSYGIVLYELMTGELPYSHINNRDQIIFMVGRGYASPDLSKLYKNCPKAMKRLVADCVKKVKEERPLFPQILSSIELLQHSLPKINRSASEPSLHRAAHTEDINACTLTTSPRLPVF

HPAF-II cells = test: HPAF-II cell proliferation assay; type: cell-based; details: Homo sapiens
Pa16c cells = test: Pa16c cell proliferation assay; type: cell-based; details: 67 to 72 h incubation, resazurin; read-out: Pa16c (inhibition of cell proliferation, IC50)
[4] = Table 4, mutant KRAS colorectal cancer cell line, anti-proliferative, read-out: HCT-116
[5] = Table 4, mutant KRAS pancreatic cancer cell line, anti-proliferative, read-out: MiaPaca-2
[6] = Table 4, mutant KRAS pancreatic cancer cell line, anti-proliferative, read-out: HPAF-II
[7] = HCT-116, 67 to 72 h incubation, resazurin, read-out: HCT-116 (inhibition of cell proliferation, IC50)
[8] = Table 3, mutant KRAS colorectal cancer cell line, anti-proliferative, read-out: HCT-116
[9] = 67-72 h incubation, resazurin, read-out: MiaPaca-2 (inhibition of cell proliferation, IC50)
[10] = Table 3, mutant KRAS pancreatic cancer cell line, anti-proliferative, read-out: MiaPaca-2
[11] = 1 mM ATP, read-out: BRAF (inhibition of biochemical activity, IC50)
[12] = 1 mM ATP, read-out: CRAF (inhibition of biochemical activity, IC50)
[13] = HPAF-II, 115 to 120 h incubation, resazurin, read-out: HPAF-II (inhibition of cell proliferation, IC50)
[14] = Table 3, mutant KRAS pancreatic cancer cell line, anti-proliferative, read-out: HPAF-II

SMILES | IC50 (HCT-116 cells; [4]) [µM] | IC50 (MiaPaca-2 cells; [5]) [µM] | IC50 ([1]; Table 4) [µM] | IC50 ([2]; Table 4, read-out: BRAF) [µM] | IC50 ([3]; Table 4, read-out: CRAF) [µM] | IC50 (HPAF-II cells; [6]) [µM] | IC50 (HCT-116 cells; [7]) [µM] | IC50 (HCT-116 cells; [8]) [µM] | IC50 (MiaPaca-2 cells; [9]) [µM] | IC50 (MiaPaca-2 cells; [10]) [µM] | IC50 (Pa16c cells) [µM] | IC50 ([1]; Table 3) [µM] | IC50 [2, 11] [µM] | IC50 ([2]; Table 3, read-out: BRAF) [µM] | IC50 [3, 12] [µM] | IC50 ([3]; Table 3, read-out: CRAF) [µM] | IC50 (HPAF-II cells; [13]) [µM] | IC50 (HPAF-II cells; [14]) [µM]
Cc1ccc2c(Nc3cccc(Cl)c3F)nccc2c1NC(=O)c1csc2c(N)ncnc12 [Belvarafenib, reference compound] | 0.5 to 1 | 1 to 10 | 1 to 10 | < 0.1 | < 0.1 | 1 to 10 | – | – | – | – | – | – | – | – | – | – | – | –
Cc1ccc(NC(=O)c2cc(C(F)(F)F)cnn2)cc1-c1cc(OCCO)nc(N2CCOCC2)c1 [Example 6] | – | – | – | – | – | – | < 0.1 | < 0.1 | < 0.1 | < 0.1 | < 0.1 | < 0.1 | < 0.1 | < 0.1 | < 0.1 | < 0.1 | < 0.1 | < 0.1
Cc1ccc(NC(=O)c2cc(C(C)C)cnn2)cc1-c1cc(N[C@H](C)CO)nc(N2CCOCC2)c1 [Example 14] | – | – | – | – | – | – | 0.1 to 0.5 | 0.1 to 0.5 | 0.1 to 0.5 | 0.1 to 0.5 | 1 to 10 | < 0.1 | < 0.1 | < 0.1 | < 0.1 | < 0.1 | 0.1 to 0.5 | 0.1 to 0.5
Cc1ccc(NC(=O)c2cc(C(C)C)cnn2)cc1-c1ccnc(N2CCOCC2)n1 [Example 73] | – | – | – | – | – | – | 0.5 to 1 | – | 1 to 10 | – | 1 to 10 | – | 1 to 10 | – | 0.1 to 0.5 | – | 1 to 10 | –
Cc1ccc(NC(=O)c2cc(Cl)cnn2)cc1-c1cc(N2CCOCC2)ncn1 [Example 74] | – | – | – | – | – | – | 1 to 10 | – | 1 to 10 | – | 1 to 10 | – | 1 to 10 | – | 1 to 10 | – | 1 to 10 | –
Cc1ccc(NC(=O)c2cc(Cl)cnn2)cc1-c1cccc(N2CCOCC2)c1 [Example 75] | – | – | – | – | – | – | 1 to 10 | – | 1 to 10 | – | 1 to 10 | – | 1 to 10 | – | 1 to 10 | – | 1 to 10 | –
Cc1ccc(NC(=O)c2cc(C(C)C)cnn2)cc1-c1cccc(N2CCOCC2)c1 [Example 76] | – | – | – | – | – | – | 1 to 10 | – | 1 to 10 | – | 1 to 10 | – | 0.1 to 0.5 | – | < 0.1 | – | 1 to 10 | –
Cc1ccc(NC(=O)c2cc(Cl)cnn2)cc1-c1cncc(N2CCOCC2)c1 [Example 77] | – | – | – | – | – | – | 1 to 10 | – | 1 to 10 | – | 1 to 10 | – | 1 to 10 | – | 1 to 10 | – | 1 to 10 | –
Cc1ccc(NC(=O)c2cc(Br)cnn2)cc1-c1cc(OCCO)nc(N2CCOCC2)c1 [Example 78] | – | – | – | – | – | – | 0.5 to 1 | – | 0.5 to 1 | – | 1 to 10 | – | 0.1 to 0.5 | – | < 0.1 | – | 1 to 10 | –
Cc1ccc(NC(=O)c2cc(C(C)C)cnn2)cc1-c1cncc(N2CCOCC2)c1 [Example 79] | – | – | – | – | – | – | 1 to 10 | – | 1 to 10 | – | 1 to 10 | – | 0.1 to 0.5 | – | < 0.1 | – | 1 to 10 | –
Cc1ccc(NC(=O)c2cc(C(N)=O)cnn2)cc1-c1cc(N[C@H](C)CO)nc(N2CCOCC2)c1 [Example 80] | – | – | – | – | – | – | 0.5 to 1 | – | 0.1 to 0.5 | – | 1 to 10 | – | 1 to 10 | – | 0.5 to 1 | – | 1 to 10 | –
Cc1ccc(NC(=O)c2cc(C#N)cnn2)cc1-c1cc(N[C@H](C)CO)nc(N2CCOCC2)c1 [Example 81] | – | – | – | – | – | – | < 0.1 | – | < 0.1 | – | < 0.1 | – | 0.5 to 1 | – | 0.1 to 0.5 | – | < 0.1 | –
Cc1ccc(NC(=O)c2cc(Br)cnn2)cc1-c1cc(N[C@H](C)CO)nc(N2CCOCC2)c1 [Example 82] | – | – | – | – | – | – | 0.1 to 0.5 | – | 0.1 to 0.5 | – | 1 to 10 | – | 0.1 to 0.5 | – | < 0.1 | – | 1 to 10 | –
Cc1ccc(NC(=O)c2cc(C3CC3)cnn2)cc1-c1ccnc(N2C[C@@H](C)O[C@@H](C)C2)c1 [Example 85] | – | – | – | – | – | – | 1 to 10 | – | 1 to 10 | – | 1 to 10 | – | 1 to 10 | – | 1 to 10 | – | 1 to 10 | –
Cc1ccc(NC(=O)c2cc(C(F)(F)F)cnn2)cc1-c1ccnc(N2C[C@H]3C[C@@H]2CO3)c1 [Example 86] | – | – | – | – | – | – | < 0.1 | – | < 0.1 | – | < 0.1 | – | 1 to 10 | – | 1 to 10 | – | < 0.1 | –
Cc1ccc(NC(=O)c2cc(C(F)(F)F)cnn2)cc1-c1ccnc(N2C[C@@H]3C[C@H]2CO3)c1 [Example 87] | – | – | – | – | – | – | < 0.1 | – | < 0.1 | – | < 0.1 | – | 0.1 to 0.5 | – | 0.1 to 0.5 | – | < 0.1 | –
Cc1ccc(NC(=O)c2cc(C3CC3)cnn2)cc1-c1ccnc(N2C[C@H]3C[C@@H]2CO3)c1 [Example 88] | – | – | – | – | – | – | < 0.1 | – | < 0.1 | – | < 0.1 | – | 0.1 to 0.5 | – | < 0.1 | – | < 0.1 | –
Cc1ccc(NC(=O)c2cc(C3CC3)cnn2)cc1-c1ccnc(N2C[C@@H]3C[C@H]2CO3)c1 [Example 89] | – | – | – | – | – | – | < 0.1 | – | < 0.1 | – | < 0.1 | – | 0.1 to 0.5 | – | 1 to 10 | – | < 0.1 | –
Cc1ccc(NC(=O)c2cc(C(F)(F)F)cnn2)cc1-c1nc(N[C@H](C)CO)cc(N2C[C@H]3C[C@@H]2CO3)n1 [Example 90] | – | – | – | – | – | – | 0.1 to 0.5 | – | 0.1 to 0.5 | – | 1 to 10 | – | 1 to 10 | – | 1 to 10 | – | 0.5 to 1 | –
CNc1cc(N2C[C@H]3C[C@@H]2CO3)nc(-c2cc(NC(=O)c3cc(C(F)(F)F)cnn3)ccc2C)n1 [Example 91] | – | – | – | – | – | – | 1 to 10 | – | 0.5 to 1 | – | 1 to 10 | – | 1 to 10 | – | 1 to 10 | – | 1 to 10 | –
CNc1cc(-c2cc(NC(=O)c3cc(C(F)(F)F)cnn3)ccc2C)cc(N2C[C@H]3C[C@@H]2CO3)n1 [Example 92] | – | – | – | – | – | – | < 0.1 | – | < 0.1 | – | < 0.1 | – | 0.1 to 0.5 | – | 0.1 to 0.5 | – | < 0.1 | –
Cc1ccc(NC(=O)c2cc(C(F)(F)F)cnn2)cc1-c1cc(N[C@H](C)CO)nc(N2C[C@H]3C[C@@H]2CO3)c1 [Example 93] | – | – | – | – | – | – | < 0.1 | – | < 0.1 | – | < 0.1 | – | 0.1 to 0.5 | – | 0.1 to 0.5 | – | < 0.1 | –
CNc1cc(-c2cc(NC(=O)c3cc(C(F)(F)F)cnn3)ccc2C)nc(N2C[C@H]3C[C@@H]2CO3)n1 [Example 94] | – | – | – | – | – | – | < 0.1 | – | < 0.1 | – | < 0.1 | – | 1 to 10 | – | 1 to 10 | – | < 0.1 | –
Cc1ccc(NC(=O)N2CC[C@@H](CC(F)(F)F)C2)cc1-c1cc(N[C@H](C)CO)nc(N2CCOCC2)c1 [Exarafenib, reference compound] | 0.5 to 1 | 1 to 10 | 1 to 10 | – | – | 1 to 10 | – | – | – | – | – | – | – | – | – | – | – | –
Cc1ccc(NC(=O)c2ccnc(C(F)(F)F)c2)cc1-c1cc(OCCO)nc(N2CCOCC2)c1 [Naporafenib, reference compound] | 1 to 10 | 1 to 10 | 1 to 10 | < 0.1 | < 0.1 | 1 to 10 | – | – | – | – | – | – | – | – | – | – | – | –
C[C@@H](NC(=O)c1ncnc(N)c1Cl)c1ncc(C(=O)Nc2cc(C(F)(F)F)c(Cl)cn2)s1 [Tovorafenib, reference compound] | 1 to 10 | 1 to 10 | 1 to 10 | – | – | 1 to 10 | – | – | – | – | – | – | – | – | – | – | – | –
